In US9474275B2, “Cyanoenamines and their use as fungicides” (priority 2010, dated 2016):
Read-outs that look alike come from different tables or passages of the source. Marks after values point to notes of the source that are not given here.

What was measured:
Phytophthora infestans = type: in vivo; details: tomato plants, preventive spray, 500 ppm of active ingredient, evaluated 7 days after inoculation; 0% = untreated control, 100% = no disease
[1] = method [a]: LC-MS at pH 2.7, 0.1% formic acid in water / acetonitrile, linear gradient 10% to 95% acetonitrile
Method: Measurement of log P values was performed according EEC directive 79/831 Annex V.A8 by HPLC (High Performance Liquid Chromatography) on reversed phase columns with the following methods:
^[a] measurement of LC-MS was done at pH 2.7 with 0.1% formic acid in water and with acetonitrile (contains 0.1% formic acid) as eluent with a linear gradient from 10% acetonitrile to 95% acetonitrile.

Plasmopara viticola = assay: Plasmopara test (grapevines) / preventive; type: in vivo; details: grapevine plants, preventive spray, 100 ppm of active ingredient, evaluated 6 days after inoculation; 0% = untreated control, 100% = no disease
Method: Solvent: 24.5 parts by weight of acetone • 24.5 parts by weight of dimethylacetamide
Emulsifier: 1 part by weight of alkylaryl polyglycol ether
To produce a suitable preparation of active compound, 1 part by weight of active compound is mixed with the stated amounts of solvent and emulsifier, and the concentrate is diluted with water to the desired concentration. To test for preventive activity, young plants are sprayed with the preparation of active compound at the stated rate of application. After the spray coating has dried on, the plants are inoculated with an aqueous spore suspension of Plasmopara viticola and then remain for 1 day in an incubation cabinet at approximately 20° C. and a relative atmospheric humidity of 100%. The plant is subsequently placed for 4 days in a greenhouse at approximately 21° C. and a relative atmospheric humidity of approximately 90%. The plants are then misted and placed for 1 day in an incubation cabinet. The test is evaluated 6 days after the inoculation. 0% means an efficacy which corresponds to that of the untreated control, while an efficacy of 100% means that no disease is observed.

SMILES | efficacy (Phytophthora infestans) [%] | LogP [1] | LogP (pH 2.7) | efficacy (Plasmopara viticola) [%] | LogP (pH 7.5)
CCCC(=O)C(C#N)=C(NC(C)C(C)OC)c1cccnc1Cl (mixture of isomers) [Compound 114] | 95 | 3.02^[a] |  |  | 
CC(NC(=C(C#N)C(=O)CC1CC1)c1cccnc1Cl)C1(Cl)CC1 (racemic) [Compound 27] | 93 |  | 3.39^[a] | 95 | 
CCCC(=O)C(C#N)=C(NC(C)C1=NOCC1)c1cccnc1Cl (racemic) [Compound 100] | 95 | 2.47^[a] |  |  | 
CCCC(=O)C(C#N)=C(NC(C)C1(C)CC1)c1cccnc1Cl (racemic) [Compound 103] | 95 | 3.57^[a] |  |  | 
CCCC(=O)C(C#N)=C(NC(C)C1CCC1)c1cccnc1Cl (racemic) [Compound 104] | 95 | 3.81^[a] |  |  | 
CCCC(=O)C(C#N)=C(NC(C)c1ncc(C)s1)c1cccnc1Cl (racemic) [Compound 107] | 95 |  | 3.19^[a] | 100 | 
C#CC(C)NC(=C(C#N)C(=O)CCC)c1cccnc1Cl (racemic) [Compound 112] | 83 | 2.9^[a] |  |  | 
CC#CC(C)NC(=C(C#N)C(=O)CCC)c1cccnc1Cl (racemic) [Compound 113] | 85 | 3.09^[a] |  |  | 
CCCC(=O)C(C#N)=C(NC(C)CCc1ccccc1)c1cccnc1Cl (racemic) [Compound 116] | 85 | 4.16^[a] |  |  | 
CCCC(=O)C(C#N)=C(NC(C)CCC)c1cccnc1Cl (racemic) [Compound 117] | 80 | 3.65^[a] |  |  | 
CCCC(=O)C(C#N)=C(NC(C)C1(C)CC1)c1cn(C)nc1C(F)F (racemic) [Compound 121] | 93 | 3.33^[a] |  |  | 
CCCC(=O)C(C#N)=C(NC(C)CC)c1cn(C)nc1C(F)F (racemic) [Compound 122] | 90 | 2.98^[a] |  |  | 
C#CC(C)NC(=C(C#N)C(=O)CCC)c1cn(C)nc1C(F)F (racemic) [Compound 124] | 93 | 2.66^[a] |  |  | 
CC#CC(C)NC(=C(C#N)C(=O)CCC)c1cn(C)nc1C(F)F (racemic) [Compound 125] | 75 | 2.98^[a] |  |  | 
CCCC(=O)C(C#N)=C(NC(C)CCC)c1cn(C)nc1C(F)F (racemic) [Compound 129] | 75 | 3.33^[a] |  |  | 
CCCC(=O)C(C#N)=C(NC(C)CC1CC1)c1cn(C)nc1C(F)F (racemic) [Compound 130] | 85 | 3.35^[a] |  |  | 
CCCC(=O)C(C#N)=C(NC(C)C(=O)OCC)c1cn(C)nc1C(F)F (racemic) [Compound 131] | 80 | 2.78^[a] |  |  | 
CCCC(=O)C(C#N)=C(NC(C)c1ccco1)c1cn(C)nc1C(F)F (racemic) [Compound 132] | 90 | 3.04^[a] |  |  | 
COCC(=O)C(C#N)=C(NC(C)c1ccccn1)c1cccnc1Cl (stereo not drawn) [Compound 1] | 93 | 1.78^[a] |  |  | 
COCC(C)NC(=C(C#N)C(=O)CC1CC1)c1cn(C)nc1C(F)F (stereo not drawn) [Compound 2] | 100 |  | 2.54^[a] | 94 | 

SMILES | efficacy (Phytophthora infestans) [%] | LogP [1] | LogP (pH 2.7) | efficacy (Plasmopara viticola) [%] | LogP (pH 7.5)
CC(C)C(C)NC(=C(C#N)C(=O)CC1CC1)c1cn(C)nc1C(F)F (stereo not drawn) [Compound 4] | 95 |  | 3.27^[a] | 94 | 
CCC(=O)C(C#N)=C(NC(C)C(C)C)c1cccnc1Cl (stereo not drawn) [Compound 5] | 100 |  | 3.11^[a] | 93 | 3.09^[b]
CC(C)C(C)NC(=C(C#N)C(=O)C1(F)CC1)c1cccnc1Cl (stereo not drawn) [Compound 10] | 95 | 3.29^[a] |  |  | 
CC(C)C(C)NC(=C(C#N)C(=O)CC1CC1)c1cccnc1Cl (stereo not drawn) [Compound 11] | 100 |  | 3.55^[a] | 82 | 
CCCCC(=O)C(C#N)=C(NC(C)C(C)C)c1cccnc1Cl (stereo not drawn) [Compound 16] | 95 | 4.06^[a] |  |  | 
COCC(=O)C(C#N)=C(NC(C)C1CC1)c1cn(C)nc1C(F)F (stereo not drawn) [Compound 17] | 100 | 2.15^[a] |  |  | 
CCCC(=O)C(C#N)=C(NC(C)C1CC1)c1cn(C)nc1C(F)F (stereo not drawn) [Compound 18] | 95 |  | 3.08^[a] | 91 | 
CCCC(=O)C(C#N)=C(NC(C)C(C)C)c1cccnc1Cl (stereo not drawn) [Compound 20] | 100 |  | 3.69^[a] | 87 | 
CCC(=O)C(C#N)=C(NC(C)C(C)C)c1cn(C)nc1C(F)F (stereo not drawn) [Compound 23] | 93 | 2.92^[a] |  |  | 
CC(C)C(C)NC(=C(C#N)C(=O)c1ccsn1)c1cccnc1Cl (stereo not drawn) [Compound 25] | 75 | 2.98^[a] |  |  | 
CCCC(=O)C(C#N)=C(NC(C)c1nccs1)c1cccnc1Cl (stereo not drawn) [Compound 26] | 100 | 2.61^[a] |  |  | 
CC(C)C(C)NC(=C(C#N)C(=O)C1CCOC1)c1cccnc1Cl (stereo not drawn) [Compound 28] |  |  | 2.70^[a] |  | 
CCCC(=O)C(C#N)=C(NC(C)COC)c1cn(C)nc1C(F)F (stereo not drawn) [Compound 30] | 100 |  | 2.54^[a] | 94 | 
CCCC(=O)C(C#N)=C(NC(C)C1(Cl)CC1)c1cccnc1Cl (stereo not drawn) [Compound 33] | 90 |  | 3.44^[a] | 93 | 
CC(C)C(C)NC(=C(C#N)C(=O)C1CCC1)c1cn(C)nc1C(F)F (stereo not drawn) [Compound 34] | 90 | 3.46^[a] |  |  | 
COCC(=O)C(C#N)=C(NC(C)C1(Cl)CC1)c1cccnc1Cl (stereo not drawn) [Compound 36] | 70 | 2.44^[a] |  |  | 
CC(C)CC(=O)C(C#N)=C(NC(C)C(C)C)c1cccnc1Cl (stereo not drawn) [Compound 40] | 75 | 3.90^[a] |  |  | 
CC(C)C(C)NC(=C(C#N)C(=O)C1CCC1)c1cccnc1Cl (stereo not drawn) [Compound 44] | 85 | 3.80^[a] |  |  | 
CCCCC(=O)C(C#N)=C(NC(C)C1(Cl)CC1)c1cccnc1Cl (stereo not drawn) [Compound 47] | 75 | 2.33^[a] |  |  | 
CCCC(=O)C(C#N)=C(NC(C)C(C)C)c1cn(C)nc1C(F)F (stereo not drawn) [Compound 51] | 95 |  | 3.29^[a] | 100 | 

SMILES | efficacy (Phytophthora infestans) [%] | LogP [1] | LogP (pH 2.7) | efficacy (Plasmopara viticola) [%] | LogP (pH 7.5)
CC(C)C(C)NC(=C(C#N)C(=O)C1CC1)c1cn(C)nc1C(F)F (stereo not drawn) [Compound 52] | 75 | 3.11^[a] |  |  | 
COCC(=O)C(C#N)=C(NC(C)C(C)C)c1cn(C)nc1C(F)F (stereo not drawn) [Compound 56] | 95 |  | 2.42^[a] | 78 | 
CC(NC(=C(C#N)C(=O)C1CC1)c1cn(C)nc1C(F)F)C1CC1 (stereo not drawn) [Compound 59] | 90 | 2.90^[a] |  |  | 
COCCC(=O)C(C#N)=C(NC(C)C(C)C)c1cn(C)nc1C(F)F (stereo not drawn) [Compound 62] | 75 | 2.64^[a] |  |  | 
CC(NC(=C(C#N)C(=O)C1CCC1)c1cn(C)nc1C(F)F)C1CC1 (stereo not drawn) [Compound 70] | 80 | 3.25^[a] |  |  | 
CCC1CC1NC(=C(C#N)C(=O)CC1CC1)c1cccnc1Cl (stereo not drawn) [Compound 72] | 100 | 3.46^[a] |  |  | 
C=CCCC(=O)C(C#N)=C(NC(C)C(C)C)c1cccnc1Cl (stereo not drawn) [Compound 73] | 80 | 3.7^[a] |  |  | 
COCC(=O)C(C#N)=C(NC(C)c1nccs1)c1cccnc1Cl (stereo not drawn) [Compound 77] | 93 |  |  |  | 
CCCC(=O)C(C#N)=C(NC(C)COC)c1cccnc1Cl (stereo not drawn) [Compound 83] | 100 |  |  | 100 | 
CCCC(=O)C(C#N)=C(NC(C)c1ccsn1)c1cccnc1Cl (stereo not drawn) [Compound 85] | 97 |  |  | 87 | 
CCCC(=O)C(C#N)=C(NC(C)COCC)c1cccnc1Cl (stereo not drawn) [Compound 86] | 97 |  |  | 90 | 
CCCC(=O)C(C#N)=C(NC(C)C(C)(C)C)c1cccnc1Cl (stereo not drawn) [Compound 87] | 100 |  |  | 100 | 
CCCC(=O)C(C#N)=C(NC(C)COC)c1cccnc1C (stereo not drawn) [Compound 91] | 100 | 2.14^[a] |  |  | 
CCCC(=O)C(C#N)=C(NC1(CC2CC2)CC1)c1cccnc1Cl [Compound 101] | 95 | 3.79^[a] |  |  | 
CCCC(=O)C(C#N)=C(NC1CCC1)c1cccnc1Cl [Compound 102] | 80 | 3.13^[a] |  |  | 
CCCC(=O)C(C#N)=C(NC(C)c1c(F)cccc1F)c1cccnc1Cl (stereo not drawn) [Compound 106] | 75 | 3.46^[a] |  |  | 
CCCC(=O)C(C#N)=C(NC(C)c1c(F)cccc1F)c1cn(C)nc1C(F)F (stereo not drawn) [Compound 110] | 95 | 3.46^[a] |  |  | 
CCCC(=O)C(C#N)=C(NC1(CC2CC2)CC1)c1cn(C)nc1C(F)F [Compound 119] | 93 | 3.44^[a] |  |  | 
CCCC(=O)C(C#N)=C(NC1CCC1)c1cn(C)nc1C(F)F [Compound 120] | 90 | 2.88^[a] |  |  | 
